In brackets after ≈: the same amount, converted by molar mass.
Columns and labels:
Klebsiella pneumoniae [1] = experiment: Antibacterial activity against extended spectrum beta-lactamase producing Klebsiella pneumoniae HK14368/08 after 24 hrs by broth microdilution method; format: functional
Pseudomonas aeruginosa [2] = experiment: Antibacterial activity against Pseudomonas aeruginosa ATCC 9027 after 24 hrs by broth microdilution method; format: functional
Klebsiella pneumoniae [3] = experiment: Antibacterial activity against Klebsiella pneumoniae HK11750/08 after 24 hrs by broth microdilution method; format: functional
Escherichia coli [4] = experiment: Antibacterial activity against Escherichia coli ATCC 8739 after 24 hrs by broth microdilution method; format: functional
Candida albicans [5] = experiment: Antifungal activity against Candida albicans ATCC 44859 after 24 hrs by broth microdilution method; format: functional; conditions: ATCC 44859, 24 h
Trichosporon asahii [6] = experiment: Antifungal activity against Trichosporon asahii 1188 after 48 hrs by broth microdilution method; format: functional; conditions: Trichosporon asahii, 1188, 48 h
[7] = Cytotoxicity against human A431 cells assessed as cell viability at 30 uM after 48 hrs by MTS assay relative to control; format: cell-based, A-431; conditions: read-out: Activity
Klebsiella pneumoniae [8] = experiment: Antibacterial activity against Klebsiella pneumoniae HK11750/08 after 48 hrs by broth microdilution method; format: functional; conditions: HK11750/08, 48 h
[9] = tested on: Mycobacterium tuberculosis; experiment: Antimycobacterial activity against Mycobacterium tuberculosis CNCTC My 331/88 after 21 days by micromethod; format: functional; conditions: CNCTC My 331/88, 504 h
Candida albicans [10] = experiment: Antifungal activity against Candida albicans ATCC 44859 after 48 hrs by broth microdilution method; format: functional; conditions: ATCC 44859, 48 h
Nakaseomyces glabratus [11] = experiment: Antifungal activity against Candida glabrata 20/I after 48 hrs by broth microdilution method; format: functional
[12] = Selectivity index, ratio of IC50 for human HepG2 cells to MIC for Mycobacterium tuberculosis; format: toxicity; conditions: read-out: Selectivity Index
Candida tropicalis [13] = experiment: Antifungal activity against Candida tropicalis 156 after 48 hrs by broth microdilution method; format: functional; conditions: Candida tropicalis, 156, 48 h
Trichosporon asahii [14] = experiment: Antifungal activity against Trichosporon asahii 1188 after 24 hrs by broth microdilution method; format: functional; conditions: Trichosporon asahii, 1188, 24 h
[15] = Cytotoxicity against human HuH7 cells assessed as cell viability at 30 uM after 48 hrs by MTS assay relative to control; format: cell-based, Huh-7; conditions: read-out: Activity
Staphylococcus aureus [16] = experiment: Antibacterial activity against Staphylococcus aureus ATCC 6538 after 48 hrs by broth microdilution method; format: functional; conditions: ATCC 6538, 48 h
Pichia kudriavzevii [17] = experiment: Antifungal activity against Candida krusei E28 after 24 hrs by broth microdilution method; format: functional; conditions: E28, 24 h
MDCK = experiment: Cytotoxicity against MDCK cells assessed as cell viability after 48 hrs by MTS assay; format: cell-based; conditions: Canis lupus familiaris
Huh-7 = experiment: Cytotoxicity against human HuH7 cells assessed as cell viability after 48 hrs by MTS assay; format: cell-based; conditions: Huh-7, 48 h
Aspergillus fumigatus [18] = experiment: Antifungal activity against Aspergillus fumigatus 231 after 48 hrs by broth microdilution method; format: functional; conditions: Aspergillus fumigatus, 231, 48 h
Candida tropicalis [19] = experiment: Antifungal activity against Candida tropicalis 156 after 24 hrs by broth microdilution method; format: functional; conditions: Candida tropicalis, 156, 24 h
Mycobacterium kansasii [20] = experiment: Antimycobacterial activity against Mycobacterium kansasii CNCTC My 235/80 after 14 days by micromethod; format: functional; conditions: CNCTC My 235/80, 336 h
Enterococcus sp. [21] = experiment: Antibacterial activity against Enterococcus sp. HK14365/08 after 24 hrs by broth microdilution method; format: functional; conditions: HK14365/08, 24 h
Enterococcus sp. [22] = experiment: Antibacterial activity against Enterococcus sp. HK14365/08 after 48 hrs by broth microdilution method; format: functional; conditions: HK14365/08, 48 h
Mycobacterium kansasii [23] = experiment: Antimycobacterial activity against Mycobacterium kansasii CNCTC My 235/80 after 7 days by micromethod; format: functional; conditions: CNCTC My 235/80, 168 h
[24] = tested on: Trichophyton mentagrophytes; experiment: Antifungal activity against Trichophyton mentagrophytes 445 after 72 hrs by broth microdilution method; format: functional; conditions: Trichophyton mentagrophytes, 445, 72 h
Escherichia coli [25] = experiment: Antibacterial activity against Escherichia coli ATCC 8739 after 48 hrs by broth microdilution method; format: functional; conditions: ATCC 8739, 48 h
[26] = tested on: Trichophyton mentagrophytes; experiment: Antifungal activity against Trichophyton mentagrophytes 445 after 120 hrs by broth microdilution method; format: functional; conditions: Trichophyton mentagrophytes, 445, 120 h
Mycobacterium kansasii [27] = experiment: Antimycobacterial activity against Mycobacterium kansasii 6509/96 clinical isolate after 21 days by micromethod; format: functional; conditions: 6509/96, 504 h
Mycobacterium kansasii [28] = experiment: Antimycobacterial activity against Mycobacterium kansasii 6509/96 clinical isolate after 7 days by micromethod; format: functional; conditions: 6509/96, 168 h
[29] = Cytotoxicity against MDCK cells assessed as cell viability at 30 uM after 48 hrs by MTS assay relative to control; format: cell-based, Canis lupus familiaris; conditions: dog, read-out: Activity
Nakaseomyces glabratus [30] = experiment: Antifungal activity against Candida glabrata 20/I after 24 hrs by broth microdilution method; format: functional
HepG2 = experiment: Cytotoxicity against human HepG2 cells assessed as cell viability after 48 hrs by MTS assay; format: cell-based; conditions: HepG2, 48 h
[31] = tested on: Staphylococcus epidermidis; experiment: Antibacterial activity against Staphylococcus epidermidis HK6996/08 after 24 hrs by broth microdilution method; format: functional; conditions: HK6996/08, 24 h
Mycobacterium kansasii [32] = experiment: Antimycobacterial activity against Mycobacterium kansasii CNCTC My 235/80 after 21 days by micromethod; format: functional; conditions: CNCTC My 235/80, 504 h
Pseudomonas aeruginosa [33] = experiment: Antibacterial activity against Pseudomonas aeruginosa ATCC 9027 after 48 hrs by broth microdilution method; format: functional; conditions: ATCC 9027, 48 h
Staphylococcus aureus [34] = experiment: Antibacterial activity against methicillin-resistant Staphylococcus aureus HK5996/08 after 48 hrs by broth microdilution method; format: functional; conditions: HK5996/08, 48 h
Aspergillus fumigatus [35] = experiment: Antifungal activity against Aspergillus fumigatus 231 after 24 hrs by broth microdilution method; format: functional; conditions: Aspergillus fumigatus, 231, 24 h
Staphylococcus aureus [36] = experiment: Antibacterial activity against methicillin-resistant Staphylococcus aureus HK5996/08 after 24 hrs by broth microdilution method; format: functional; conditions: HK5996/08, 24 h
[37] = tested on: Mycobacterium tuberculosis; experiment: Antimycobacterial activity against Mycobacterium tuberculosis CNCTC My 331/88 after 14 days by micromethod; format: functional; conditions: CNCTC My 331/88, 336 h
[38] = Cytotoxicity against human HepG2 cells assessed as cell viability at 30 uM after 48 hrs by MTS assay relative to control; format: cell-based; conditions: read-out: Activity
Lichtheimia corymbifera [39] = experiment: Antifungal activity against Absidia corymbifera 272 after 48 hrs by broth microdilution method; format: functional; conditions: Lichtheimia corymbifera, 272, 48 h
Klebsiella pneumoniae [40] = experiment: Antibacterial activity against extended spectrum beta-lactamase producing Klebsiella pneumoniae HK14368/08 after 48 hrs by broth microdilution method; format: functional; conditions: HK14368/08, 48 h
[41] = tested on: Staphylococcus epidermidis; experiment: Antibacterial activity against Staphylococcus epidermidis HK6996/08 after 48 hrs by broth microdilution method; format: functional; conditions: HK6996/08, 48 h
Mycobacterium kansasii [42] = experiment: Antimycobacterial activity against Mycobacterium kansasii 6509/96 clinical isolate after 14 days by micromethod; format: functional; conditions: 6509/96, 336 h
A-431 = experiment: Cytotoxicity against human A431 cells assessed as cell viability after 48 hrs by MTS assay; format: cell-based; conditions: A-431, 48 h
Pichia kudriavzevii [43] = experiment: Antifungal activity against Candida krusei E28 after 48 hrs by broth microdilution method; format: functional; conditions: E28, 48 h
Lichtheimia corymbifera [44] = experiment: Antifungal activity against Absidia corymbifera 272 after 24 hrs by broth microdilution method; format: functional; conditions: Lichtheimia corymbifera, 272, 24 h
Staphylococcus aureus [45] = experiment: Antibacterial activity against Staphylococcus aureus ATCC 6538 after 24 hrs by broth microdilution method; format: functional; conditions: ATCC 6538, 24 h

Question: With GENTAMICIN as the compound, how does the MIC (Klebsiella pneumoniae [1]) read?
Answer: 0.26 µM

Question: What about the MIC (Pseudomonas aeruginosa [2]) of the same compound?
Answer: 1 µM

Question: What about the MIC (Klebsiella pneumoniae [3]) of the same compound?
Answer: 0.26 µM

Question: And the MIC (Escherichia coli [4])?
Answer: 0.26 µM

Question: Which MIC (Candida albicans [5]) does the source give for `O=[N+]([O-])c1cc(-c2nnc(SCc3ccc(Cl)cc3)o2)cc([N+](=O)[O-])c1` here?
Answer: > 125 µM

Question: And the MIC (Trichosporon asahii [6])?
Answer: > 125 µM

Question: And the viability at 48 h, 30 µM [7]?
Answer: 100%

Question: What about the MIC (Klebsiella pneumoniae [8]) of the same compound?
Answer: > 500 µM

Question: And the MIC [9]?
Answer: 0.06 µM (≈ 0.0236 µg/mL)

Question: And the MIC (Candida albicans [10])?
Answer: > 125 µM

Question: What about the MIC (Nakaseomyces glabratus [11]) of the same compound?
Answer: > 125 µM

Question: What about the selectivity ratio [12] of the same compound?
Answer: > 1000

Question: What about the MIC (Candida tropicalis [13]) of the same compound?
Answer: > 125 µM

Question: What about the MIC (Trichosporon asahii [14]) of the same compound?
Answer: > 125 µM

Question: And the viability at 48 h, 30 µM [15]?
Answer: 126%

Question: And the MIC (Staphylococcus aureus [16])?
Answer: > 500 µM

Question: And the MIC (Pichia kudriavzevii [17])?
Answer: > 125 µM

Question: And the IC50 (MDCK)?
Answer: > 30 µM

Question: And the MIC (Klebsiella pneumoniae [1]; HK14368/08, 24 h)?
Answer: > 500 µM

Question: What about the IC50 (Huh-7) of the same compound?
Answer: > 30 µM

Question: And the MIC (Aspergillus fumigatus [18])?
Answer: > 125 µM

Question: What about the MIC (Candida tropicalis [19]) of the same compound?
Answer: > 125 µM

Question: And the MIC (Mycobacterium kansasii [20])?
Answer: 0.06 µM (≈ 0.0236 µg/mL)

Question: And the MIC (Enterococcus sp. [21])?
Answer: > 500 µM

Question: What about the MIC (Enterococcus sp. [22]) of the same compound?
Answer: > 500 µM

Question: And the MIC (Pseudomonas aeruginosa [2]; ATCC 9027, 24 h)?
Answer: > 500 µM

Question: What about the MIC (Mycobacterium kansasii [23]) of the same compound?
Answer: 0.03 µM (≈ 0.0118 µg/mL)

Question: And the MIC [24]?
Answer: > 125 µM

Question: And the MIC (Escherichia coli [25])?
Answer: > 500 µM

Question: What about the MIC [26] of the same compound?
Answer: > 125 µM

Question: What about the MIC (Klebsiella pneumoniae [3]; HK11750/08, 24 h) of the same compound?
Answer: > 500 µM

Question: What about the MIC (Mycobacterium kansasii [27]) of the same compound?
Answer: 0.03 µM (≈ 0.0118 µg/mL)

Question: And the MIC (Mycobacterium kansasii [28])?
Answer: 0.03 µM (≈ 0.0118 µg/mL)

Question: What about the viability at 48 h, 30 µM [29] of the same compound?
Answer: 110%

Question: What about the MIC (Nakaseomyces glabratus [30]) of the same compound?
Answer: > 125 µM

Question: What about the IC50 (HepG2) of the same compound?
Answer: > 30 µM

Question: And the MIC [31]?
Answer: > 500 µM

Question: What about the MIC (Mycobacterium kansasii [32]) of the same compound?
Answer: 0.125 µM (≈ 0.0491 µg/mL)

Question: What about the MIC (Pseudomonas aeruginosa [33]) of the same compound?
Answer: > 500 µM

Question: And the MIC (Staphylococcus aureus [34])?
Answer: > 500 µM

Question: What about the MIC (Aspergillus fumigatus [35]) of the same compound?
Answer: > 125 µM

Question: And the MIC (Staphylococcus aureus [36])?
Answer: > 500 µM

Question: What about the MIC [37] of the same compound?
Answer: 0.03 µM (≈ 0.0118 µg/mL)

Question: What about the viability at 48 h, 30 µM [38] of the same compound?
Answer: 126%

Question: And the MIC (Lichtheimia corymbifera [39])?
Answer: > 125 µM

Question: And the MIC (Klebsiella pneumoniae [40])?
Answer: > 500 µM

Question: And the MIC [41]?
Answer: > 500 µM

Question: And the MIC (Escherichia coli [4]; ATCC 8739, 24 h)?
Answer: > 500 µM

Question: What about the MIC (Mycobacterium kansasii [42]) of the same compound?
Answer: 0.03 µM (≈ 0.0118 µg/mL)

Question: And the IC50 (A-431)?
Answer: > 30 µM

Question: And the MIC (Pichia kudriavzevii [43])?
Answer: > 125 µM

Question: And the MIC (Lichtheimia corymbifera [44])?
Answer: > 125 µM

Question: What about the MIC (Staphylococcus aureus [45]) of the same compound?
Answer: > 500 µM
